ChEMBL document CHEMBL5244255, “An insight on medicinal attributes of 1,2,4-triazoles” (Eur J Med Chem, 2020)
In brackets after ≈: the same amount, converted by molar mass.

Key:
DNA topoisomerase II = DNA topoisomerase II (Homo sapiens, UniProt P11388+Q02880); experiment: Inhibition of human Topoisomerase 2 incubated for 30 mins by ELISA assay; assay type: protein assay
Mus musculus [1] = species on record: Mus musculus; experiment: Antiseizure activity against ScPTZ-induced seizure in mouse; assay type: functional; conditions: route sc
Mus musculus [2] = species on record: Mus musculus; experiment: Anticonvulsant activity in mouse assessed as MES-induced seizures measured after 30 mins; assay type: functional; conditions: 0.5 h
[3] = test system: Middle East respiratory syndrome-related coronavirus; experiment: Antiviral activity of Middle East respiratory syndrome coronavirus; assay type: functional, organism-based
DNA gyrase = DNA gyrase (Escherichia coli, UniProt P0AES4+P0AES6); experiment: Inhibition of Escherichia coli DNA gyrase supercoiling activity by Microplate Assay kit method; assay type: protein-complex assay
[4] = Protection index, ratio of TD50 for neurotoxicity in po dosed mouse to ED50 for anticonvulsant activity in ip dosed mouse; assay type: toxicity, organism-based; conditions: in vivo, read-out: Ratio TD50/ED50
Mus musculus [5] = experiment: Anticonvulsant activity in po dosed mouse assessed as MES-induced seizures; assay type: functional
Plasmodium falciparum [6] = experiment: microbe, parasite or virus in culture
[7] = biological target: Epidermal growth factor receptor (Homo sapiens, UniProt P00533); experiment: Inhibition of EGFR (unknown origin) […] insect sf9 cells incubated for 1 hrs in presence of ATP
Tubulin [8] = experiment: Inhibition of tubulin (unknown origin); assay type: protein-complex assay, Homo sapiens
[9] = Inhibition of BRAF V600E mutant (unknown origin) incubated for 25 mins in presence of ATP by ELISA assay; parameters: species or system Homo sapiens
[10] = Protection index, ratio of TD50 for neurotoxicity in ip dosed mouse to ED50 for anticonvulsant activity in ip dosed mouse; assay type: toxicity, organism-based; conditions: in vivo, read-out: Ratio TD50/ED50
Mus musculus [11] = experiment: Anticonvulsant activity in ip dosed mouse; assay type: functional
Enterococcus faecalis = experiment: Antibacterial activity against Enterococcus faecalis ATCC 29212 assessed as bacterial growth inhibition by double micro dilution method; assay type: functional
Staphylococcus aureus [12] = experiment: Antibacterial activity against Staphylococcus aureus ATCC 25923 assessed as bacterial growth inhibition by double micro dilution method; assay type: functional
[13] = test system: Acinetobacter haemolyticus; experiment: Antibacterial activity against Acinetobacter haemolyticus ATCC 19002 assessed as bacterial growth inhibition by double micro dilution method; assay type: functional
Pseudomonas aeruginosa = experiment: Antibacterial activity against Pseudomonas aeruginosa ATCC 27853 assessed as bacterial growth inhibition by double micro dilution method; assay type: functional
Escherichia coli = experiment: Antibacterial activity against Escherichia coli ATCC 25922 assessed as bacterial growth inhibition by double micro dilution method; assay type: functional
Klebsiella pneumoniae = experiment: Antibacterial activity against Klebsiella pneumoniae ATCC 13883 assessed as bacterial growth inhibition by double micro dilution method; assay type: functional
Rattus norvegicus [14] = experiment: Antiinflammatory activity in rat assessed as reduction in xylene induced edema at 10 mg/kg, po by CPE test relative to control; assay type: functional; parameters: scale not given: the % may be the effect or the level left
Mus musculus [15] = experiment: Anticonvulsant activity in ip dosed mouse assessed as protection against PTZ-induced seizure; assay type: functional
Jurkat = experiment: Antiproliferative activity against human jurkat cells assessed as cell growth inhibition incubated for 48 hrs by MTT assay; assay type: functional, cell-based
RS4-11 = experiment: Antiproliferative activity against human RS4-11 cells assessed as cell growth inhibition incubated for 48 hrs by MTT assay; assay type: functional, cell-based; conditions: RS4-11, 48 h
HT-29 = experiment: Antiproliferative activity against human HT-29 cells assessed as cell growth inhibition incubated for 48 hrs by MTT assay; assay type: functional, cell-based; conditions: HT-29, 48 h
Tubulin [16] = biological target: Tubulin (Bos taurus, UniProt Q6B856+Q862L2+Q862F3); experiment: Inhibition of bovine brain tubulin polymerization incubated for 20 mins in presence of GTP
HeLa = experiment: Antiproliferative activity against human HeLa cells assessed as cell growth inhibition incubated for 48 hrs by MTT assay; assay type: functional, cell-based
MCF7 = experiment: Antiproliferative activity against human MCF7 cells assessed as cell growth inhibition incubated for 48 hrs by MTT assay; assay type: functional, cell-based; conditions: MCF7, 48 h
Candida albicans = experiment: Antifungal activity against Candida albicans assessed as fungal growth inhibition incubated for 16 hrs; assay type: functional
Staphylococcus aureus [17] = experiment: Antibacterial activity against Staphylococcus aureus assessed as bacterial growth inhibition incubated for 16 hrs; assay type: functional
[18] = test system: Mycobacterium tuberculosis; experiment: Antimycobacterial activity against Mycobacterium tuberculosis H37Rv measured after 7 days; assay type: functional; conditions: 168 h, time 7 day
Rattus norvegicus [19] = experiment: Antiinflammatory activity in rat assessed as reduction in carrageenan induced edema at 10 mg/kg, po measured after 4 to 5 hrs relative to control; assay type: functional; parameters: scale not given: the % may be the effect or the level left; conditions: time 4-5 hrs
Plasmodium falciparum [20] = experiment: Antimalarial activity against Chloroquine resistant Plasmodium falciparum W2; assay type: functional, organism-based
Rattus norvegicus [21] = species on record: Rattus norvegicus; experiment: Bronchodilator activity in Sprague-Dawley rat; assay type: functional, organism-based
BT-20 [22] = experiment: Potency index, ratio of test compound IC50 to cisplatin IC50 for antiproliferative against human BT-20 cells; assay type: functional
BT-20 [23] = experiment: Anticancer activity against human BT-20 cells assessed as cell growth inhibition incubated for 48 hrs by MTT assay; assay type: functional, cell-based; conditions: BT-20, 48 h
DU-145 = experiment: Anticancer activity against human DU-145 cells assessed as cell growth inhibition incubated for 48 hrs by MTT assay; assay type: functional, cell-based; conditions: DU-145, 48 h
[24] = Anticancer activity against human SK-MEL-128 cells assessed as cell growth inhibition incubated for 48 hrs by MTT assay; assay type: functional, cell-based; conditions: SK-MEL-128, 48 h
A549 = experiment: Anticancer activity against human A549 cells assessed as cell growth inhibition incubated for 48 hrs by MTT assay; assay type: functional, cell-based; conditions: A549, 48 h
Staphylococcus aureus [25] = experiment: Antibacterial activity against Staphylococcus aureus 6538 assessed as bacterial growth inhibition incubated for 24 hrs; assay type: functional
Staphylococcus aureus [26] = experiment: Antibacterial activity against Methicillin-resistant Staphylococcus aureus assessed as bacterial growth inhibition incubated for 24 hrs; assay type: functional
[27] = test system: Xanthomonas oryzae pv. oryzae; experiment: Antibacterial activity against Xanthomonas oryzae pv. oryzae assessed as bacterial growth inhibition; assay type: functional, organism-based
[28] = test system: Xanthomonas oryzae pv. oryzae; experiment: Antibacterial activity against Xanthomonas oryzae pv. oryzae assessed as bacterial growth inhibition by turbidimetric method; assay type: functional, organism-based
[29] = Inhibition of 5 alpha reductase (unknown origin)

Chain of Epidermal growth factor receptor (P00533 whole entry): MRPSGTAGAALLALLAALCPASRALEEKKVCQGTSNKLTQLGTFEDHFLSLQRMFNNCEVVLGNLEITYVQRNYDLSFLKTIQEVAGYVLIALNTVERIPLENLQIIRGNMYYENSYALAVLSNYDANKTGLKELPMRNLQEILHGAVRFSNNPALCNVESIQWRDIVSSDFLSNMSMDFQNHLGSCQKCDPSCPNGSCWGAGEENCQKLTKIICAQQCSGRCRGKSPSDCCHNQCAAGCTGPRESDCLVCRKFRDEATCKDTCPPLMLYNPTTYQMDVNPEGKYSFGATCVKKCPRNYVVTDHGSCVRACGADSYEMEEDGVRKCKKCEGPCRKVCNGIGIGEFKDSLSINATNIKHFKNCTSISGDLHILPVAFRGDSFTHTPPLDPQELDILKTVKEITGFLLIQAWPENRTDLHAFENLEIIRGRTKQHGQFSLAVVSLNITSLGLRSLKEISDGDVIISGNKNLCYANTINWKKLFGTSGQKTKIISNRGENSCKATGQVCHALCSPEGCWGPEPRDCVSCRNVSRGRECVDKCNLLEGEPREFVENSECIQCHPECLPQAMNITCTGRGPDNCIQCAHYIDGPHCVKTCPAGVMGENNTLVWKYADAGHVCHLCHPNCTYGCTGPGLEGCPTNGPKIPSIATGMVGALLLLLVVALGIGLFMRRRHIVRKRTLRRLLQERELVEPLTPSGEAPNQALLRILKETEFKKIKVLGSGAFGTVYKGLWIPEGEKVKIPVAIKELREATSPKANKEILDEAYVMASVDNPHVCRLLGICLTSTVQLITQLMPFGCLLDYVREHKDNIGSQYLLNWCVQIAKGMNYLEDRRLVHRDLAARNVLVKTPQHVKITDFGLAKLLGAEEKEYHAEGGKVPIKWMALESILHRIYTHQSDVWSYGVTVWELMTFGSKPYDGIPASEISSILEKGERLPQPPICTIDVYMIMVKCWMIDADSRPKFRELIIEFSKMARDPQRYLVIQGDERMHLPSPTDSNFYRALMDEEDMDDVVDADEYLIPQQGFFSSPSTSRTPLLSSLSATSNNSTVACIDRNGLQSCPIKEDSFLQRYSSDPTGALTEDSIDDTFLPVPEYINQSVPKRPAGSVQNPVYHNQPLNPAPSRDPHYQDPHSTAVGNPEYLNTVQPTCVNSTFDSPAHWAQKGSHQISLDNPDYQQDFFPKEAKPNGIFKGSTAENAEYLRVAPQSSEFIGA

For `O=C(CSc1nc2ccccc2n2cnnc12)Nc1ccc(S(=O)(=O)Nc2nccs2)cc1`, which IC50 (DNA topoisomerase II) is on record?
Its IC50 is 1100 nM.

Which results are given for `O=C(CSc1nc[nH]n1)Nc1nc2ccc(OCc3ccc(F)cc3)cc2s1`?
ED50 (Mus musculus [1]): 52.8 mg/kg; ED50 (Mus musculus [2]): 54.8 mg/kg

For `Sc1nnc(NNc2ccc(I)cc2)n1NC1C=CCC1` (centres undefined), which IC50 [3] is on record?
The IC50 was 470 nM.

For `CCn1cc(-c2nc(/N=C/c3ccc(Br)cc3)n[nH]2)c(=O)c2cc(Br)c(C)nc21`, which IC50 (DNA gyrase) is on record?
Its IC50 is 6220 nM.

What does the source list for `O=c1c2ccccc2n2cnnc2n1-c1ccc(Br)cc1`?
selectivity ratio [4]: > 26; ED50 (Mus musculus [5]): 94.6 mg/kg

With `COc1ccccc1-n1c(S)nnc1-c1cc(S(N)(=O)=O)c(Cl)cc1N` as the compound, how does the IC50 (Plasmodium falciparum [6]) read?
Its IC50 is 0.025 µg/mL (≈ 0.0607 µM).

For `COc1ccc(C(=O)n2nc(-c3cccnc3)nc2N)cc1`, which IC50 [7] is on record?
The IC50 was 3600 nM.

And the IC50 (Tubulin [8])?
The IC50 was 957 nM.

What about the IC50 [9] of the same compound?
Its IC50 is 1900 nM.

With `O=c1[nH]nc2n1-c1ccc(OCc3ccc(F)cc3)cc1SC2` as the compound, how does the selectivity ratio [10] read?
Its selectivity ratio is 15.4.

And the ED50 (Mus musculus [11])?
The ED50 was 9.2 mg/kg.

What does the source list for `O=C(CSc1nc[nH]n1)Nc1nc2ccc(OCc3cccc(F)c3)cc2s1`?
ED50 (Mus musculus [1]): 76 mg/kg; ED50 (Mus musculus [2]): 50.8 mg/kg

With `CCn1c(CN2CCN(c3ccccc3)CC2)nn(CN2CCN(c3cc4c(cc3F)c(=O)c(C(=O)O)cn4C3CC3)CC2)c1=S` as the compound, how does the MIC (Enterococcus faecalis) read?
Its MIC is 0.125 µg/mL (≈ 0.193 µM).

What about the MIC (Staphylococcus aureus [12]) of the same compound?
Its MIC is 0.125 µg/mL (≈ 0.193 µM).

What about the MIC [13] of the same compound?
The MIC was 0.125 µg/mL (≈ 0.193 µM).

And the MIC (Pseudomonas aeruginosa)?
Its MIC is 0.125 µg/mL (≈ 0.193 µM).

What about the MIC (Escherichia coli) of the same compound?
Its MIC is 0.125 µg/mL (≈ 0.193 µM).

What about the MIC (Klebsiella pneumoniae) of the same compound?
The MIC was 0.125 µg/mL (≈ 0.193 µM).

Which Activity (Rattus norvegicus [14]) does the source give for `Fc1cc(Cl)cc(-c2nn3c(CN4c5ccccc5Sc5ccccc54)nnc3s2)c1` here?
Its Activity is 83.06%.

With `O=C(O)c1cn(C2CC2)c2cc(N3CCN(Cn4nc(CN5CCN(c6ccccc6)CC5)n(-c5ccccc5)c4=S)CC3)c(F)cc2c1=O` as the compound, how does the MIC (Enterococcus faecalis) read?
The MIC was 0.125 µg/mL (≈ 0.18 µM).

What about the MIC (Staphylococcus aureus [12]) of the same compound?
The MIC was 0.125 µg/mL (≈ 0.18 µM).

And the MIC [13]?
The MIC was 0.125 µg/mL (≈ 0.18 µM).

What about the MIC (Pseudomonas aeruginosa) of the same compound?
The MIC was 0.125 µg/mL (≈ 0.18 µM).

And the MIC (Escherichia coli)?
The MIC was 0.125 µg/mL (≈ 0.18 µM).

What about the MIC (Klebsiella pneumoniae) of the same compound?
Its MIC is 0.125 µg/mL (≈ 0.18 µM).

Which results are given for `CCCOc1ccc(-c2csc3nncn23)cc1`?
ED50 (Mus musculus [15]): 63.4 mg/kg; TD50 (Mus musculus [15]): 106 mg/kg; selectivity ratio [10]: 1.9

What does the source list for `COc1ccc(-c2nc(N)n(C(=O)c3cc(OC)c(OC)c(OC)c3)n2)cc1`?
IC50 (Jurkat): < 1000 nM; IC50 (RS4-11): < 1000 nM; IC50 (HT-29): < 1000 nM; IC50 (Tubulin [16]): 970 nM; IC50 (HeLa): < 1000 nM; IC50 (MCF7): < 1000 nM

With `O=C(CSc1nc2ccccc2n2cnnc12)Nc1ccc(S(=O)(=O)Nc2ccccn2)cc1` as the compound, how does the IC50 (DNA topoisomerase II) read?
The IC50 was 970 nM.

Which MIC (Candida albicans) does the source give for `O=C(NCc1nnc(S)n1/N=C/c1ccc([N+](=O)[O-])cc1)c1ccccc1` here?
Its MIC is 3.12 µg/mL (≈ 8.17 µM).

What about the MIC (Staphylococcus aureus [17]) of the same compound?
The MIC was 3.12 µg/mL (≈ 8.17 µM).

For `O=[N+]([O-])c1ncn(CCCCNS(=O)(=O)c2scc(Cl)c2Cl)n1`, which MIC [18] is on record?
Its MIC is 1.56 µg/mL (≈ 3.9 µM).

Which Activity (Rattus norvegicus [19]) does the source give for `Clc1cccc(Cl)c1Nc1ccccc1Cc1nncn1Nc1nc2ccccc2s1` here?
The Activity was 85.31%.

Which IC50 (Plasmodium falciparum [20]) does the source give for `Cc1cc(Nc2ccc(C(F)(F)F)cc2)n2nc(C(F)(F)F)nc2n1` here?
Its IC50 is 23 nM.

Which EC50 (Rattus norvegicus [21]) does the source give for `O=c1c(-c2n[nH]c(=S)n2-c2ccccc2)c[nH]c2ncnn12` here?
The EC50 was 57100 nM.

With `Cc1cc(Nc2ccc(Cl)c(Cl)c2)n2nc(C(F)(F)F)nc2n1` as the compound, how does the IC50 (Plasmodium falciparum [20]) read?
Its IC50 is 23 nM.

What does the source list for `COc1ccc(/C=N/n2c(S)nnc2CNC(=O)c2ccc(C)cc2)cc1OC`?
MIC (Candida albicans): 3.12 µg/mL (≈ 7.59 µM); MIC (Staphylococcus aureus [17]): 3.12 µg/mL (≈ 7.59 µM)

Which results are given for `Nn1c(Cc2ccccc2Br)nn(CC(=O)NNC(=O)c2cc3cc(Cl)cc(Cl)c3oc2=O)c1=O`?
Ratio IC50 (BT-20 [22]): 5.2; IC50 (BT-20 [23]): 3.1 µg/mL (≈ 5.32 µM); IC50 (DU-145): 3.1 µg/mL (≈ 5.32 µM); IC50 [24]: 3.1 µg/mL (≈ 5.32 µM); IC50 (A549): 3.1 µg/mL (≈ 5.32 µM)

What does the source list for `O=c1[nH]nc2n1-c1ccc(OCc3ccc(F)cc3)cc1OCC2`?
selectivity ratio [10]: 12.6; ED50 (Mus musculus [11]): 26.3 mg/kg

Which results are given for `FC(F)(F)c1cc(-c2nnc(Sc3cc(Cl)nc(Sc4ccccc4)n3)[nH]2)cc(C(F)(F)F)c1`?
MIC (Staphylococcus aureus [25]): 1.8 µM (≈ 0.961 µg/mL); MIC (Staphylococcus aureus [26]): 0.43 µg/mL (≈ 0.805 µM)

For `S=c1[nH]nc(NCNc2n[nH]c(=S)s2)s1`, which EC50 [27] is on record?
Its EC50 is 85.6 µg/mL (≈ 307 µM).

What about the EC50 [28] of the same compound?
The EC50 was 89.8 µg/mL (≈ 323 µM).

For `O=C(Nc1ccccc1)C1=NN(c2ccccc2)/C(=C2/C=NN(Cc3cc4ccccc4oc3=O)C2=O)N1c1ccccc1`, which ED50 [29] is on record?
Its ED50 is 150 nM.
